Laboratory results reported in patent publication US20230183323A1 (BROWN UNIVERSITY, priority 2020, published 2023).
Structures can show the parent of a compound that is named as a salt.

Columns and labels:
[1] = test system: ACE2, TMPRSS2, and CTSL mRNA in A549 cells; test: qRT-PCR of mRNA levels in A549 cells incubated with rhCHI3L1; assay type: cell-based, human; conditions: 24 hr
Protocol: (§1) Total cellular RNA was obtained using TRIzol reagent (ThermoFisher Scientific) followed by RNA extraction using RNeasy Mini Kit (Qiagen, Germantown, Md.) according to the manufacturer's instructions. mRNA was measured and used for real time (RT)-PCR as described previously.^55,56 The primer sequences used in these studies are summarized in Table 1. Ct values of the test genes were normalized to the internal housekeeping gene β-actin.
In the first study, A549 cells were incubated with rhCHI3L1 from a commercial source (R&D Inc.) and rhCHI3L1 generated at Brown University (Brown). The cells were incubated for 24 hr with stimulation of rhCHI3L1 (500 ng/mL) at 37° C. mRNA was then extracted and the levels of mRNA for ACE2 and CTSL were evaluated by real time qRT-PCR and compared to vehicle controls. Levels were expressed in relationship to GAPDH controls.
In the next study, A549 cells were incubated with 0, 250 ng/mL, or 500 ng/mL of rhCHI3L1 for 24 hr with stimulation of rhCHI3L1 at 37° C. mRNA was then extracted and the levels of mRNA encoding ACE2, TMPRSS2, and CTSL were assessed via qRT-PCR.

[2] = test system: ACE2, TMPRSS2, and CTSL mRNA in normal human small airway epithelial cells (HSAEC); test: qRT-PCR of mRNA levels in HSAEC incubated with rhCHI3L1; assay type: cell-based; conditions: rhCHI3L1 500 ng/mL, 24 hours
Protocol: as §1
In the present study, normal HSAEC were incubated with 0, 100 ng/mL, or 500 ng/mL of rhCHI3L1 for 24 hours at 37° C. The levels of mRNA encoding ACE2, TMPRSS2, and CTSL were assessed via qRT-PCR and expressed in relationship to GAPDH controls.

[3] = test system: spike protein (S)-containing pseudovirus (D614 and G614 variants); assay type: cell-based; conditions: Calu-3 cells, rCHI3L1 24 hours before pseudovirus
[4] = test system: ACE2, FURIN, TMPRSS2, and CTSL mRNA in Calu-3 lung epithelial cells; test: RT-PCR of basal and rhCHI3L1 regulated expression in Calu-3 cells with FRG or KSM; assay type: cell-based, human; conditions: Calu-3 cells, rhCHI3L1 250 ng/mL, 24 hours
Protocol: Calu-3 cells were incubated with vehicle or rhCHI3L1 for 24 hours in the presence of KSM (250 ng/mL) or its vehicle control (PBS). Levels of mRNA encoding ACE2 (top left), FURIN (top right), TMPRSS2 (bottom left), and CTSL (bottom right) were assessed via RT-PCR. KSM diminished the levels of basal ACE2 expression and potently ameliorated the ability of rhCHI3L1 to stimulate ACE2 mRNA accumulation.
as §1
Calu-3 cells were incubated with vehicle or 250 ng/mL rhCHI3L1 for 24 hours in the presence of 250 ng/mL FRG or its isotype control (isotype) at 37° C. Levels of mRNA encoding ACE2, FURIN, TMPRSS2, and CTSL were assessed via RT-PCR.
Kasugamycin (KSM) is an inhibitor of CHI3L1 and chitinase 1. The present study assessed the effects of KSM on the levels of mRNA encoding ACE2, FURIN, TMPRSS2, and CTSL in Calu-3 cells.

CDK9 = CDK9 (Homo sapiens, UniProt P50750); parameters: key: + is used to indicate the potency of the inhibitor; ++++ > +++ > ++ > +; + is used to indicate the potency of the inhibitor; ++++ > +++ > ++ > +; + is used to indicate the potency of the inhibitor; ++++ > +++ > ++ > +; + is used to indicate the potency of the inhibitor; ++++ > +++ > ++ > +; ◯ refers to compounds with inhibitory effects on the related isoform, but without specific value; conditions: cited from earlier work
Chain of CDK9 (O60563 whole entry, canonical isoform): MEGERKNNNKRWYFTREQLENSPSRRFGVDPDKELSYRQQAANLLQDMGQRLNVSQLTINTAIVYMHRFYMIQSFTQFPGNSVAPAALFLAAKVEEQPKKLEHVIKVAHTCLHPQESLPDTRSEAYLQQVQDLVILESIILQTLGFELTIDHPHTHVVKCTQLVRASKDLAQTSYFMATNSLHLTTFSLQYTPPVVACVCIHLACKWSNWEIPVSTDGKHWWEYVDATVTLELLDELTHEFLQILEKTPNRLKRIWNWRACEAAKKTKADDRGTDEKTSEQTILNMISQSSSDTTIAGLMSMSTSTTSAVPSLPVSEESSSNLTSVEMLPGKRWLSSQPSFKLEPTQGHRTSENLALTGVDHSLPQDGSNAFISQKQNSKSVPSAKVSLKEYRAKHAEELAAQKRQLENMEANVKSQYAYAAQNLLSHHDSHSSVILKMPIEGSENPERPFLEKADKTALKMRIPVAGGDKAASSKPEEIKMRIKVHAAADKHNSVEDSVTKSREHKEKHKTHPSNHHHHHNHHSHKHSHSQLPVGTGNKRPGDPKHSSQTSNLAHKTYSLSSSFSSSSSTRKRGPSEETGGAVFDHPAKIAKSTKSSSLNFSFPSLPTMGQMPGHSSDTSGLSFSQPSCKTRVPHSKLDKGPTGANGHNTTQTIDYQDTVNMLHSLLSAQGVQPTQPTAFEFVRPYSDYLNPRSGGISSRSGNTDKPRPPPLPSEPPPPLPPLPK
Chain of CDK9 (P50750 whole entry, canonical isoform): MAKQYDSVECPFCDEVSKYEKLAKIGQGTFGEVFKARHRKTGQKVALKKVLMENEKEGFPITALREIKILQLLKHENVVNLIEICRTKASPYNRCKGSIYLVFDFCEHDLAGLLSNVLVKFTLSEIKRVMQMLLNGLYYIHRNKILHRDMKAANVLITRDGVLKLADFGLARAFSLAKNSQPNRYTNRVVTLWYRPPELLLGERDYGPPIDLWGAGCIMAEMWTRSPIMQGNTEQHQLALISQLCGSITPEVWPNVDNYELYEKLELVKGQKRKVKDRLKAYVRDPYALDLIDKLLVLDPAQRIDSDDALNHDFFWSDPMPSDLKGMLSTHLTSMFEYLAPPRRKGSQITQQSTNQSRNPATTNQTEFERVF

CDK7 = CDK7 (Homo sapiens, UniProt P50613); parameters: key: + is used to indicate the potency of the inhibitor; ++++ > +++ > ++ > +; + is used to indicate the potency of the inhibitor; ++++ > +++ > ++ > +; + is used to indicate the potency of the inhibitor; ++++ > +++ > ++ > +; + is used to indicate the potency of the inhibitor; ++++ > +++ > ++ > +; ◯ refers to compounds with inhibitory effects on the related isoform, but without specific value; conditions: cited from earlier work
Chain of CDK7 (P51946 whole entry, canonical isoform): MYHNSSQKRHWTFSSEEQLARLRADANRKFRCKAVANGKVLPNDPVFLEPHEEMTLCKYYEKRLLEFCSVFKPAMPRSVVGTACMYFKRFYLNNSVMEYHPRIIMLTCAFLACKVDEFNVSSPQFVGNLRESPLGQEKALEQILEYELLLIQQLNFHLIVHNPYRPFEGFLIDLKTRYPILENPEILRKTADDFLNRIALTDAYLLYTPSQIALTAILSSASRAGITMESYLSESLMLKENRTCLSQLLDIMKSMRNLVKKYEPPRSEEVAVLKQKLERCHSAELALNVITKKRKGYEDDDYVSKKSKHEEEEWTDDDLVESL
Chain of CDK7 (P50613 whole entry, canonical isoform): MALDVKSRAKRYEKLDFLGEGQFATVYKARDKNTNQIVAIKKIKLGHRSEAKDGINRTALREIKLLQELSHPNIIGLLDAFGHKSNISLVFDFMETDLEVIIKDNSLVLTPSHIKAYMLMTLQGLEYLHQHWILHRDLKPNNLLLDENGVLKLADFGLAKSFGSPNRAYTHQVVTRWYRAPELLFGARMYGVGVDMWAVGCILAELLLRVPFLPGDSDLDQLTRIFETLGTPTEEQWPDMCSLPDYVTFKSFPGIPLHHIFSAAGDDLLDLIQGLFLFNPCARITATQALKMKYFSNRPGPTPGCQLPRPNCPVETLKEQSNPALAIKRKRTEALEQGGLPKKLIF
Chain of CDK7 (P51948 whole entry, further chain, canonical isoform): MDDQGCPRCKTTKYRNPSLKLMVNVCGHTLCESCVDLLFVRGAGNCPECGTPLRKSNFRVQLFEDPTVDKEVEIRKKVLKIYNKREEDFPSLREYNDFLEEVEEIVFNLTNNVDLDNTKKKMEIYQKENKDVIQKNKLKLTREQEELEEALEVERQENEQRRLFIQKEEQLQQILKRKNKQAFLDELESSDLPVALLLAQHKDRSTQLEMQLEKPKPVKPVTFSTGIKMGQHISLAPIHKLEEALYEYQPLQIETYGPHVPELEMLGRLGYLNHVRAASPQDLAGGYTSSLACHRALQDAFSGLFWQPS

CDK8 = CDK8 (Homo sapiens, UniProt P49336); parameters: key: + is used to indicate the potency of the inhibitor; ++++ > +++ > ++ > +; + is used to indicate the potency of the inhibitor; ++++ > +++ > ++ > +; + is used to indicate the potency of the inhibitor; ++++ > +++ > ++ > +; + is used to indicate the potency of the inhibitor; ++++ > +++ > ++ > +; ◯ refers to compounds with inhibitory effects on the related isoform, but without specific value; conditions: cited from earlier work
Chain of CDK8 (P24863 whole entry, canonical isoform): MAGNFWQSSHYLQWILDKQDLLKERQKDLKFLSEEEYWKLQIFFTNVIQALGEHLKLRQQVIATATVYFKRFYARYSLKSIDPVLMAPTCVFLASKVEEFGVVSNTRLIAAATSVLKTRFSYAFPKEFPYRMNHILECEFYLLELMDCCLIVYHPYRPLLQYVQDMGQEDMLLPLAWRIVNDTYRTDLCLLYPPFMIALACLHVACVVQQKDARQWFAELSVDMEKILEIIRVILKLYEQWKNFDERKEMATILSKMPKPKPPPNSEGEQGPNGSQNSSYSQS
Chain of CDK8 (P49336 whole entry, canonical isoform): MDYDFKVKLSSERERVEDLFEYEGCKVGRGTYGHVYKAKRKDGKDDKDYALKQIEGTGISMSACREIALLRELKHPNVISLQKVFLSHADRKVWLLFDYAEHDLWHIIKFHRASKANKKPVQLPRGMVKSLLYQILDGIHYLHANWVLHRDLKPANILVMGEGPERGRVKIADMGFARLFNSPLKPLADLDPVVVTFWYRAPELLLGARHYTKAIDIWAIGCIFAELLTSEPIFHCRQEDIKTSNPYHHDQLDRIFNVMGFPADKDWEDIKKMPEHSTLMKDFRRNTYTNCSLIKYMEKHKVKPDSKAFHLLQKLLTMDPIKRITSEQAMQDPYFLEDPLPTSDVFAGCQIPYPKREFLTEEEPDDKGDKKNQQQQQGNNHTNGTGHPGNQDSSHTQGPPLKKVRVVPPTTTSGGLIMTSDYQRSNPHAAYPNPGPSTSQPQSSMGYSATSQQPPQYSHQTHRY

[5] = test system: ACE2, TMPRSS2, CTSL, and FURIN mRNA in Calu-3 lung epithelial cells; test: RT-PCR of basal and CHI3L1 regulated expression in Calu-3 cells transfected with CHI3L1 cDNA, with flavopiridol; assay type: cell-based, human; conditions: 24 hours
Protocol: After transfection of the cells with empty vector (pcDNA) or full length CHI3L1 cDNA, the Calu-3 cells were incubated with flavopiridol (25 nM) or its vehicle control for 24 hours. Levels of mRNA encoding ACE2 (top left), TMPRSS2 (top right), CTSL (bottom left), and FURIN (bottom right) were assessed via RT-PCR. *p<0.05; **p<0.01 (Student's t-test).
as §1
The next study assessed whether the inhibition of CHI3L1 phosphorylation wound result in similar effects observed with CHI3L1 inhibitors on the levels of mRNA encoding ACE2 and spike activating proteases (SAPs), namely FURIN, TMPRSS2, and CTSL, in Calu-3 cells (described in Example 1).

CDK1 = CDK1 (Homo sapiens, UniProt P06493); conditions: cited from earlier work
Chain of CDK1 (P06493 whole entry, species assumed): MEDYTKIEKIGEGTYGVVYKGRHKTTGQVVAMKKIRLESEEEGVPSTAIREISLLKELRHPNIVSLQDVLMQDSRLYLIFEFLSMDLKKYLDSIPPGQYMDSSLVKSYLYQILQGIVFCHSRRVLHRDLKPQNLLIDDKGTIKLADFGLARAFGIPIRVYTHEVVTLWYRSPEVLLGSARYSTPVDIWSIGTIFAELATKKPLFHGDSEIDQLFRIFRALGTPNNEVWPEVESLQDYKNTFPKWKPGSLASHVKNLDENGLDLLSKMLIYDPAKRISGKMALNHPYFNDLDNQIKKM
Chain of CDK1 (P14635 whole entry partner, species assumed): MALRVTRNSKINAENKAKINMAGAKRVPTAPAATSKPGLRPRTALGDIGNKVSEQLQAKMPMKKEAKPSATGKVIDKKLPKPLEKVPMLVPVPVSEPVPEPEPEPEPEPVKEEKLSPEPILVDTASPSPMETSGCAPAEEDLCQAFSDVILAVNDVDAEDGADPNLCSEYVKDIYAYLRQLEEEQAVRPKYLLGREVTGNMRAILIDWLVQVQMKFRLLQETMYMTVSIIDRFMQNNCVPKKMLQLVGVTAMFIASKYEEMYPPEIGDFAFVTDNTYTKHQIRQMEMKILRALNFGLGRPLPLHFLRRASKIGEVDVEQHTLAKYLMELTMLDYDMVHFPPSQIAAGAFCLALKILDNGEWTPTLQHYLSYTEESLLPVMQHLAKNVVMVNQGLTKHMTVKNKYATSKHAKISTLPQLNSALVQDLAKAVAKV

CDK2 = CDK2 (Homo sapiens, UniProt P24941); conditions: cited from earlier work
CDK4 = CDK4 (Homo sapiens, UniProt P11802); conditions: cited from earlier work
Chain of CDK4 (P11802 whole entry, species assumed): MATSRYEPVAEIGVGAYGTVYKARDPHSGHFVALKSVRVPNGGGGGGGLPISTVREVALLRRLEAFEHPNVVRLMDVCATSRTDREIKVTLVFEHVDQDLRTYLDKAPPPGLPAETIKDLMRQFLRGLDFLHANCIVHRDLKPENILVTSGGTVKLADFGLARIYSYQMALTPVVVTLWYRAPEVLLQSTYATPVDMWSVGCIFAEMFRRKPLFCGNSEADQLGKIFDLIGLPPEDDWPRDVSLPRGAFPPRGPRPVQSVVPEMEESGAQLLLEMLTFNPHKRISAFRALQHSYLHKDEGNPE
Chain of CDK4 (P24385 whole entry partner, species assumed): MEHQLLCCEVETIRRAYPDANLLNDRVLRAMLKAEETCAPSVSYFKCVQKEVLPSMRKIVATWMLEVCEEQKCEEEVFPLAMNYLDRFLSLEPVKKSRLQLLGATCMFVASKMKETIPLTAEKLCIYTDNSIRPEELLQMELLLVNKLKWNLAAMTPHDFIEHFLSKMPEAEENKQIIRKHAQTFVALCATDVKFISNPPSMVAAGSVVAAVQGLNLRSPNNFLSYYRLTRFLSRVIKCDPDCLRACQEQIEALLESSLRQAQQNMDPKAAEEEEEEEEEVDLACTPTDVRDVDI

CDK6 = CDK6 (Homo sapiens, UniProt Q00534); parameters: key to the marks not given beside the values; conditions: cited from earlier work
Chain of CDK6 (Q00534 whole entry): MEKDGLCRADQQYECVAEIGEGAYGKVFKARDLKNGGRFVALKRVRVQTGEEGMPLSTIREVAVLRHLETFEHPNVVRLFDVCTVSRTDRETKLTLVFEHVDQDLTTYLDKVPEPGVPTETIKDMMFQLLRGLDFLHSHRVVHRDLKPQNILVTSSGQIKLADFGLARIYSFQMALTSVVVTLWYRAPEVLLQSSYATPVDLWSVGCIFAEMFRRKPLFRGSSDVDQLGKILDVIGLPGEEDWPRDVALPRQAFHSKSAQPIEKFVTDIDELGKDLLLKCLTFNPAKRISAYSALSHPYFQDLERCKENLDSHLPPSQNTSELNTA

[6] = test system: serine phosphorylation of CHI3L1 in U87 cells; test: Co-IP/Immunoblot of CHI3L1 phosphorylation in U87 cells; assay type: cell-based; conditions: flavopiridol 50 nM unless otherwise indicated, time-dependent and dose-dependent
Protocol: U87 cells that endogenously express all components of chitosome were subjected to Co-IP/Immunoblot assays after Pan-CDK inhibitor flavopiridol treatment. Flavopiridol was used at 50 nM unless otherwise indicated. Hr, hours.

CDK3 = CDK3 (Homo sapiens, UniProt Q00526); conditions: cited from earlier work
[7] = Calu-3 cells, pcDNA or CHI3L1 cDNA, flavopiridol 25 nM

**Q.** For “rhCHI3L1: recombinant human CHI3L1 from a commercial source (R&D Inc.) or generated at Brown University”, which “levels of mRNA encoding ACE2” value ([1]; rhCHI3L1 0, 250 or 500 ng/mL) is on record?
**A.** significantly upregulated

**Q.** What about the “levels of mRNA encoding CTSL” value ([1]; rhCHI3L1 0, 250 or 500 ng/mL) of the same molecule?
**A.** significantly upregulated

**Q.** And the “levels of mRNA encoding TMPRSS2” value ([1]; rhCHI3L1 0, 250 or 500 ng/mL)?
**A.** significantly upregulated

**Q.** What about the “levels of mRNA encoding ACE2” value ([1]; rhCHI3L1 500 ng/mL, vs vehicle) of the same molecule?
**A.** significantly upregulated

**Q.** And the “levels of mRNA encoding cathepsin L (CTSL)” value ([1]; rhCHI3L1 500 ng/mL, vs vehicle)?
**A.** significantly upregulated

**Q.** What about the “levels of mRNA encoding ACE2” value [2] of the same molecule?
**A.** significantly upregulated

**Q.** What about the “levels of mRNA encoding CTSL” value [2] of the same molecule?
**A.** significantly upregulated

**Q.** What about the “levels of mRNA encoding TMPRSS2” value [2] of the same molecule?
**A.** significantly upregulated

**Q.** And the “cellular integration of S proteins (GFP expression)” value [3]?
**A.** stimulated

**Q.** What about the “levels of mRNA encoding ACE2” value [4] of the same molecule?
**A.** significantly upregulated

**Q.** What about the “levels of mRNA encoding CTSL” value [4] of the same molecule?
**A.** significantly upregulated

**Q.** And the “levels of mRNA encoding FURIN” value [4]?
**A.** significantly upregulated

**Q.** What about the “levels of mRNA encoding TMPRSS2” value [4] of the same molecule?
**A.** significantly upregulated

**Q.** What does the source list for `CC(C)c1c2cc(-c3ccnc(NC4CCC(NC5CCOCC5)CC4)n3)ccc2nn1C` (stereo not drawn) [LY2857785]?
**A.** Inhibitory potency CDK9 (CDK9): +++; Inhibitory potency CDK7 (CDK7): +; Inhibitory potency CDK8 (CDK8): +++

**Q.** With `CN1CC[C@H](c2c(O)cc(O)c3c(=O)cc(-c4ccccc4Cl)oc23)[C@H](O)C1` [Flavopiridol] as the molecule, how does the “ability of CHI3L1 to stimulate ACE2 mRNA accumulation” value ([5]; Calu-3 cells transfected with full length CHI3L1 cDNA, flavopiridol 25 nM) read?
**A.** potently inhibited

**Q.** And the “levels of basal ACE2 expression” value ([5]; Calu-3 cells, empty vector (pcDNA), flavopiridol 25 nM vs vehicle)?
**A.** diminished

**Q.** And the “basal and CHI3L1-stimulated expression of CTSL” value [5, 7]?
**A.** potently decreased

**Q.** What about the “basal and CHI3L1-stimulated expression of FURIN” value [5, 7] of the same molecule?
**A.** potently decreased

**Q.** What about the “basal and CHI3L1-stimulated expression of TMPRSS2” value [5, 7] of the same molecule?
**A.** potently decreased

**Q.** What about the “Inhibitory potency CDK1” value (CDK1) of the same molecule?
**A.** +++

**Q.** What about the “Inhibitory potency CDK2” value (CDK2) of the same molecule?
**A.** +++

**Q.** And the “Inhibitory potency CDK4” value (CDK4)?
**A.** +++

**Q.** And the “Inhibitory potency CDK6” value (CDK6)?
**A.** ++

**Q.** And the “Inhibitory potency CDK7” value (CDK7)?
**A.** +

**Q.** What about the “serine phosphorylation of CHI3L1” value [6] of the same molecule?
**A.** blocked

**Q.** For `CN1CC[C@H](c2c(O)cc(O)c3c(=O)cc(-c4ccccc4Cl)oc23)[C@H](O)C1` [Flavopiridol HCl, Flavopiridol Hydrochloride], which “Inhibitory potency CDK1” value (CDK1) is on record?
**A.** +++

**Q.** What about the “Inhibitory potency CDK3” value (CDK3) of the same molecule?
**A.** +

**Q.** And the “Inhibitory potency CDK2” value (CDK2)?
**A.** +++

**Q.** And the “Inhibitory potency CDK4” value (CDK4)?
**A.** +++

**Q.** What about the “Inhibitory potency CDK6” value (CDK6) of the same molecule?
**A.** +++

**Q.** And the “Inhibitory potency CDK7” value (CDK7)?
**A.** +
